# Laboratory results taken from patent US12570613B2, “Imidazoquinoline or benzoindazolone compound and intermediate for preparing same” (LMITO THERAPEUTICS INC., priority 2020, dated 2026).
# Target: NQO1 protein (Homo sapiens, UniProt P15559)
# Assay: In vitro NQO1 enzyme activity assay (cytochrome C reduction, absorbance at 550 nm)
# Format: biochemical
# Conditions: NQO1 2 ng, 10 nM Compound (Table 1)
# Description: In order to evaluate the activity of the synthesized compound in NQO1, the experiments were performed as follows:
# The synthesized compound was dissolved in DMSO to make a 10 mM stock solution, which was further diluted with DMSO to 250 μM so as to prepare a working solution. For experimental groups, the working solution of the compound was added to an enzyme reaction solution in which 50 μL of 1.54 mM Cytochrome C solution was added to 900 μL of 50 mM Tris-HCl (pH7.5) containing 0.14% BSA. For negative control groups, DMSO not containing the compound of the invention was added to the enzyme reaction solution as above. For each experimental and control group, 20 μL of 100 ng/mL NQO1 protein was added, and then 10 μL of 20 mM NADH was added to bring up the total volume to 1 mL. The change of absorbance was measured at 550 nm for 10 minutes using 1 mL cuvette. The kinetics of reaction was measured by the increase of absorbance as the cytochrome C was reduced at 550 nm over 10 minutes. The activity of NQO1 was measured by the amount of cytochrome C that is being reduced (nmol cytochrome C that was reduced/min/ug NQO1 protein). • Absorption coefficient of Cytochrome C: 21.1 (μmol/mL)^−1cm^−1 • BSA: Bovine Serum Albumin • […]: Tris(hydroxymethyl)aminomethane hydrochloride (buffer solution) • Equipment=Cary 100 UV-Vis Spectrophotometer • The results are shown in Tables 1 to 8.
# Sequence of NQO1 protein (P15559 whole entry, species assumed): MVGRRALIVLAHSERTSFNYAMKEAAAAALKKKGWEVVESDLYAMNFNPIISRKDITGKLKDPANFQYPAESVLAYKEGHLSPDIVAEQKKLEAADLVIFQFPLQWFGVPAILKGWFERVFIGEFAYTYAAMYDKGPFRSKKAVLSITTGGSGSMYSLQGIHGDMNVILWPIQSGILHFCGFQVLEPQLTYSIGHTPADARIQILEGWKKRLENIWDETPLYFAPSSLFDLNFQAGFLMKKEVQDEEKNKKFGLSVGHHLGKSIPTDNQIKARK
row,SMILES,NQO1 activity assay Cytochrome C reduced/min/μg NQO1 protein
1,"Cc1nn(-c2ccc(F)cc2)c2c1C(=O)C(=O)c1ccccc1-2 [Compound 25, 1-(4-Fluorophenyl)-3-methyl-1H-benzo[g]indazol-4,5-dione]",463 nmol cytochrome C that was reduced/min/ug NQO1 protein
2,"Cc1nn(-c2ccc(Cl)cc2)c2c1C(=O)C(=O)c1ccccc1-2 [Compound 26, 1-(4-Chlorophenyl)-3-methyl-1H-benzo[g]indazol-4,5-dione]",465 nmol cytochrome C that was reduced/min/ug NQO1 protein
3,"Cc1nn(-c2cc(F)cc(F)c2)c2c1C(=O)C(=O)c1ccccc1-2 [Compound 27, 1-(3,5-Difluorophenyl)-3-methyl-1H-benzo[g]indazol-4,5-dione]",415 nmol cytochrome C that was reduced/min/ug NQO1 protein
4,"Cc1nn(-c2ccc(Cl)cc2Cl)c2c1C(=O)C(=O)c1ccccc1-2 [Compound 28, 1-(2,4-Dichlorophenyl)-3-methyl-1H-benzo[g]indazol-4,5-dione]",745 nmol cytochrome C that was reduced/min/ug NQO1 protein
5,"Cc1ccc(-n2nc(C)c3c2-c2ccccc2C(=O)C3=O)cc1 [Compound 29, 3-Methyl-1-p-tolyl-1H-benzo[g]indazol-4,5-dione]",668 nmol cytochrome C that was reduced/min/ug NQO1 protein
6,"Cc1nn(-c2ccccn2)c2c1C(=O)C(=O)c1ccccc1-2 [Compound 30, 3-Methyl-1-(pyridin-2-yl)-1H-benzo[g]indazol-4,5-dione]",494 nmol cytochrome C that was reduced/min/ug NQO1 protein
7,"Cc1nn(-c2cccnc2)c2c1C(=O)C(=O)c1ccccc1-2 [Compound 31, 3-Methyl-1-(pyridin-3-yl)-1H-benzo[g]indazol-4,5-dione]",900 nmol cytochrome C that was reduced/min/ug NQO1 protein
8,"Cc1nn(-c2ccc(F)cc2F)c2c1C(=O)C(=O)c1ccccc1-2 [Compound 32, 1-(2,4-Difluorophenyl)-3-methyl-1H-benzo[g]indazol-4,5-dione]",839 nmol cytochrome C that was reduced/min/ug NQO1 protein
9,"O=C1C(=O)c2cnn(-c3ccccc3)c2-c2ccccc21 [Compound 33, 1-Phenyl-1H-benzo[g]indazol-4,5-dione]",436 nmol cytochrome C that was reduced/min/ug NQO1 protein
10,"O=C1C(=O)c2c(C(F)(F)F)nn(-c3ccccc3)c2-c2ccccc21 [Compound 34, 1-Phenyl-3-(trifluoromethyl)-1H-benzo[g]indazol-4,5-dione]",716 nmol cytochrome C that was reduced/min/ug NQO1 protein
11,"Cc1nn(-c2ccccc2)c2c1C(=O)C(=O)c1cc(F)ccc1-2 [Compound 35, 7-Fluoro-3-methyl-1-phenyl-1H-benzo[g]indazol-4,5-dione]",694 nmol cytochrome C that was reduced/min/ug NQO1 protein

# Same assay, conditions: NQO1 2 ng, 50 nM Compound (Table 2)
row,SMILES,NQO1 activity assay Cytochrome C reduced/min/μg NQO1 protein
1,"Cc1nn(-c2cc(Cl)cc(Cl)c2)c2c1C(=O)C(=O)c1ccccc1-2 [Compound 36, 1-(3,5-Dichlorophenyl)-3-methyl-1H-benzo[g]indazol-4,5-dione]",1873 nmol cytochrome C that was reduced/min/ug NQO1 protein
2,"Cc1nn(-c2ccc(C(=O)O)cc2)c2c1C(=O)C(=O)c1ccccc1-2 [Compound 37, 4-(3-Methyl-4,5-dioxo-4,5-dihydro-1H-benzo[g]indazol-1-yl)benzoic acid]",1034 nmol cytochrome C that was reduced/min/ug NQO1 protein
3,"Cc1n[nH]c2c1C(=O)C(=O)c1ccccc1-2 [Compound 43, 3-Methyl-1H-benzo[g]indazol-4,5-dione]",1008 nmol cytochrome C that was reduced/min/ug NQO1 protein

# Same assay, conditions: NQO1 2 ng, 50 nM Compound (Table 3)
row,SMILES,NQO1 activity assay Cytochrome C reduced/min/μg NQO1 protein
1,"Cc1nn(-c2nccs2)c2c1C(=O)C(=O)c1ccccc1-2 [Compound 40, 3-Methyl-1-(thiazol-2-yl)-1H-benzo[g]indazol-4,5-dione]",2041 nmol cytochrome C that was reduced/min/ug NQO1 protein
2,"Cc1nn(-c2ccncc2)c2c1C(=O)C(=O)c1ccccc1-2 [Compound 41, 3-Methyl-1-(pyridin-4-yl)-1H-benzo[g]indazol-4,5-dione]",1617 nmol cytochrome C that was reduced/min/ug NQO1 protein
3,"Cc1c2c(nn1-c1ccncc1)-c1ccccc1C(=O)C2=O [Compound 42, 3-Methyl-2-(pyridin-4-yl)-2H-benzo[g]indazol-4,5-dione]",3212 nmol cytochrome C that was reduced/min/ug NQO1 protein
4,"Cc1c2c(nn1S(=O)(=O)c1ccccc1)-c1ccccc1C(=O)C2=O [Compound 44, 3-Methyl-2-(phenylsulfonyl)-2H-benzo[g]indazol-4,5-dione]",2169 nmol cytochrome C that was reduced/min/ug NQO1 protein

# Same assay, conditions: NQO1 2 ng, 50 nM Compound (Table 4)
row,SMILES,NQO1 activity assay Cytochrome C reduced/min/μg NQO1 protein
1,"Cc1nn(-c2cccc3ccccc23)c2c1C(=O)C(=O)c1ccccc1-2 [Compound 38, 3-Methyl-1-(naphthalen-1-yl)-1H-benzo[g]indazol-4,5-dione]",2696 nmol cytochrome C that was reduced/min/ug NQO1 protein
2,"Cc1nn(-c2cncc(Cl)c2)c2c1C(=O)C(=O)c1ccccc1-2 [Compound 39, 1-(5-Chloropyridin-3-yl)-3-methyl-1H-benzo[g]indazol-4,5-dione]",3285 nmol cytochrome C that was reduced/min/ug NQO1 protein

# Same assay, conditions: NQO1 2 ng, 50 nM Compound (Table 5)
row,SMILES,NQO1 activity assay Cytochrome C reduced/min/μg NQO1 protein
1,"Cc1c2c(nn1S(=O)(=O)c1ccc(F)cc1)-c1ccccc1C(=O)C2=O [Compound 45, 3-Methyl-2-(4-Fluorophenylsulfonyl)-2H-benzo[g]indazol-4,5-dione]",2092 nmol cytochrome C that was reduced/min/ug NQO1 protein
2,"Cc1c2c(nn1S(=O)(=O)c1ccccc1Cl)-c1ccccc1C(=O)C2=O [Compound 46, 2-(2-Chlorophenylsulfonyl)-3-methyl-2H-benzo[g]indazol-4,5-dione]",1522 nmol cytochrome C that was reduced/min/ug NQO1 protein
3,"Cc1c2c(nn1S(=O)(=O)c1cccc(Cl)c1)-c1ccccc1C(=O)C2=O [Compound 47, 2-(3-Chlorophenylsulfonyl)-3-methyl-2H-benzo[g]indazol-4,5-dione]",1277 nmol cytochrome C that was reduced/min/ug NQO1 protein
4,"Cc1c2c(nn1S(=O)(=O)c1cccnc1)-c1ccccc1C(=O)C2=O [Compound 48, 3-Methyl-2-(pyridin-3-ylsulfonyl)-2H-benzo[g]indazol-4,5-dione]",1749 nmol cytochrome C that was reduced/min/ug NQO1 protein

# Same assay, conditions: NQO1 2 ng, 50 nM Compound (Table 6)
row,SMILES,NQO1 activity assay Cytochrome C reduced/min/μg NQO1 protein
1,"Cc1c2c(nn1S(=O)(=O)c1ccc(Cl)cc1)-c1ccccc1C(=O)C2=O [Compound 49, 2-(4-Chlorophenylsulfonyl)-3-methyl-2H-benzo[g]indazol-4,5-dione]",2171 nmol cytochrome C that was reduced/min/ug NQO1 protein
2,"Cc1ccc(S(=O)(=O)n2nc3c(c2C)C(=O)C(=O)c2ccccc2-3)cc1 [Compound 50, 3-Methyl-2-tosyl-2H-benzo[g]indazol-4,5-dione]",1542 nmol cytochrome C that was reduced/min/ug NQO1 protein
3,"COc1ccc(S(=O)(=O)n2nc3c(c2C)C(=O)C(=O)c2ccccc2-3)cc1 [Compound 51, 2-(4-Methoxyphenylsulfonyl)-3-methyl-2H-benzo[g]indazol-4,5-dione]",1288 nmol cytochrome C that was reduced/min/ug NQO1 protein

# Same assay, conditions: NQO1 2 ng, 50 nM Compound (Table 7)
row,SMILES,NQO1 activity assay Cytochrome C reduced/min/μg NQO1 protein
1,"COC(=O)c1ccc(S(=O)(=O)n2nc3c(c2C)C(=O)C(=O)c2ccccc2-3)cc1 [Compound 52, Methyl 4-(3-methyl-4,5-dioxo-4,5-dihydro-2H-benzo[g]indazol-2-ylsulfonyl)benzoate]",2179 nmol cytochrome C that was reduced/min/ug NQO1 protein
2,"Cc1c2c(nn1S(=O)(=O)C1CC1)-c1ccccc1C(=O)C2=O [Compound 53, 2-(Cyclopropylsulfonyl)-3-methyl-2H-benzo[g]indazol-4,5-dione]",1549 nmol cytochrome C that was reduced/min/ug NQO1 protein
3,"Cc1c2c(nn1S(=O)(=O)C1CCCC1)-c1ccccc1C(=O)C2=O [Compound 54, 2-(Cyclopentylsulfonyl)-3-methyl-2H-benzo[g]indazol-4,5-dione]",1295 nmol cytochrome C that was reduced/min/ug NQO1 protein
4,"Cc1c2c(nn1S(=O)(=O)c1ccc(C#N)cc1)-c1ccccc1C(=O)C2=O [Compound 55, 4-(3-Methyl-4,5-dioxo-4,5-dihydro-2H-benzo[g]indazol-2-ylsulfonyl)benzonitrile]",1892 nmol cytochrome C that was reduced/min/ug NQO1 protein
